US8592174B2, “Peptidase substrates” (bioMérieux, S.A., priority 2009, dated 2013)

Legend:
Assay in all cases: pH variation detection on modified chromID Coli medium (Example 6)
Format in all cases: cell-based
Set-up in all cases: Coloration strength: key to the marks not given beside the values
Settings in all cases: 50 mg/l, 24 h 37° C.
[1] = tested on: Buttiauxella agrestis 05 04 166
Experimental: (§1) The media were incubated for 24 hours at 37° C., then the spots formed were examined visually.

[2] = tested on: Cedecea lapagei 05 04 130
Experimental: as §1

[3] = tested on: Citrobacter freundii 05 04 165
Experimental: as §1

[4] = tested on: Citrobacter koseri 75 08 021
Experimental: as §1

E. coli 77 05 035 = tested on: E. coli 77 05 035
Experimental: as §1

E. coli 78 12 004 = tested on: E. coli 78 12 004
Experimental: as §1

[5] = tested on: Edwarsiella tarda 75 07 053
Experimental: as §1

[6] = tested on: Enterobacter intermedius 05 04 110
Experimental: as §1

[7] = tested on: Ewingella americana 05 06 045
Experimental: as §1

Hafnia alvei 05 04 201 = tested on: Hafnia alvei 05 04 201
Experimental: as §1

[8] = tested on: Klebsiella oxytoca 05 04 175
Experimental: as §1

[9] = tested on: Klebsiella pneumoniae ssp pneumoniae 73 08 012
Experimental: as §1

[10] = tested on: Kluyvera ascorbata 84 08 084
Experimental: as §1

[11] = tested on: Pantoea agglomerans 04 05 057
Experimental: as §1

[12] = tested on: Pectobacterium carotovorum 84 06 059
Experimental: as §1

[13] = tested on: Proteus mirabilis 04 05 048
Experimental: as §1

[14] = tested on: Proteus vulgaris 04 05 062
Experimental: as §1

[15] = tested on: Providencia rettgeri 88 05 064
Experimental: as §1

[16] = tested on: Rahnella aquatilis 05 04 103
Experimental: as §1

[17] = tested on: Raoultella ornithinolytica 05 04 140
Experimental: as §1

[18] = tested on: Salmonella ser. Enteritidis 94 06 001
Experimental: as §1

[19] = tested on: Salmonella ser. Typhimurium 81 12 010
Experimental: as §1

Salmonella spp 93 03 001 = tested on: Salmonella spp 93 03 001; for Coloration strength: key: +++: good growth/high coloration strength; ++: medium growth/medium coloration strength; +: weak growth/weak coloration strength; −: no growth/no coloration; for Growth: key: +++: good growth/high coloration strength; ++: medium growth/medium coloration strength; +: weak growth/weak coloration strength; −: no growth/no coloration
Experimental: as §1

[20] = tested on: Serratia liquefaciens 05 04 117
Experimental: as §1

[21] = tested on: Shigella flexneri 92 11 059; for Coloration strength: key: +++: good growth/high coloration strength; ++: medium growth/medium coloration strength; +: weak growth/weak coloration strength; −: no growth/no coloration; for Growth: key: +++: good growth/high coloration strength; ++: medium growth/medium coloration strength; +: weak growth/weak coloration strength; −: no growth/no coloration
Experimental: as §1

[22] = tested on: Yersinia enterocolitica 05 04 143
Experimental: as §1

[23] = tested on: Yersinia enterocolitica ssp enterocolitica 92 11 061
Experimental: as §1

Nc1ccc(C=Cc2ccnc3ccccc23)cc1
Color [1]: Orange
Coloration strength [1]: ++
Growth ([1]; control C: ++): ++
Color [2]: Orange
Coloration strength [2]: ++
Growth ([2]; control C: ++): ++
Color [3]: Orange
Coloration strength [3]: ++
Growth ([3]; control C: ++): ++
Color [4]: Orange
Coloration strength [4]: ++
Growth ([4]; control C: ++): ++
Color (E. coli 77 05 035): Orange
Coloration strength (E. coli 77 05 035): ++
Growth (E. coli 77 05 035; control C: ++): ++
Color (E. coli 78 12 004): Orange
Coloration strength (E. coli 78 12 004): ++
Growth (E. coli 78 12 004; control C: ++): ++
Color [5]: Orange
Coloration strength [5]: ++
Growth ([5]; control C: ++): ++
Color [6]: Orange
Coloration strength [6]: ++
Growth ([6]; control C: ++): +
Color [7]: Orange
Coloration strength [7]: ++
Growth ([7]; control C: ++): ++
Color (Hafnia alvei 05 04 201): Orange
Coloration strength (Hafnia alvei 05 04 201): ++
Growth (Hafnia alvei 05 04 201; control C: ++): ++
Color [8]: Orange
Coloration strength [8]: ++
Growth ([8]; control C: ++): ++
Color [9]: Orange
Coloration strength [9]: ++
Growth ([9]; control C: ++): ++
Color [10]: Orange
Coloration strength [10]: ++
Growth ([10]; control C: ++): ++
Color [11]: Orange
Coloration strength [11]: ++
Growth ([11]; control C: ++): ++
Color [12]: Orange
Coloration strength [12]: ++
Growth ([12]; control C: ++): +
Color [13]: Orange
Coloration strength [13]: ++
Growth ([13]; control C: ++): ++
Color [14]: Orange
Coloration strength [14]: ++
Growth ([14]; control C: ++): ++
Color [15]: Orange
Coloration strength [15]: ++
Growth ([15]; control C: ++): ++
Color [16]: Orange
Coloration strength [16]: ++
Growth ([16]; control C: ++): ++
Color [17]: Orange
Coloration strength [17]: ++
Growth ([17]; control C: ++): ++
Color [18]: Orange
Coloration strength [18]: ++
Growth ([18]; control C: ++): ++
Color [19]: Orange
Coloration strength [19]: ++
Growth ([19]; control C: ++): ++
Color (Salmonella spp 93 03 001): Orange
Coloration strength (Salmonella spp 93 03 001): ++
Growth (Salmonella spp 93 03 001; control C: ++): ++
Color [20]: Orange
Coloration strength [20]: ++
Growth ([20]; control C: ++): ++
Color [21]: Orange
Coloration strength [21]: ++
Growth ([21]; control C: ++): ++
Color [22]: Orange
Coloration strength [22]: ++
Growth ([22]; control C: ++): +
Color [23]: Orange
Coloration strength [23]: ++
Growth ([23]; control C: ++): ++
